Source: the supplement of paper PMC6045584
± gives the standard deviation of the averaged measurements.

Experiments:
AFATINIB [1] = compound: T1, CN(C)C/C=C/C(=O)Nc1cc2c(Nc3ccc(F)c(Cl)c3)ncnc2cc1O[C@H]1CCOC1 [AFATINIB]; assay: area under dose-response curve of surviving fraction (unscaled, Aref=0) (surviving fraction x log10(nM)); higher = more resistant; conditions: exposure time: 5 days; dose range 0.5-1000 nM
In short: (§1)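 Three screens per tumour cell line were run in 384-well plates at eight inhibitor concentrations from 0.5 to 1000 nM over five days. Surviving fractions, from CellTiter-Glo luminescence normalised to DMSO-only wells, were fitted with 3-parameter logistic curves in the drc R package. The reported area under the curve is the unscaled activity area. It spans log10 dose, and Aref is 0.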

SAPACITABINE [2] = compound: T2, CCCCCCCCCCCCCCCC(=O)Nc1ccn([C@@H]2O[C@H](CO)[C@@H](O)[C@@H]2C#N)c(=O)n1 [SAPACITABINE]; assay: as above; conditions: exposure time: 5 days; dose range 0.5-1000 nM
In short: as §1

[3] = compound: Cn1cc(C2=Nc3cc(NC(=O)C(N)C4CCCCC4)cc4c3C2=CNNC4=O)cn1; assay: as above; conditions: exposure time: 5 days; dose range 0.5-1000 nM
In short: as §1

CANERTINIB [4] = compound: T3, C=CC(=O)Nc1cc2c(Nc3ccc(F)c(Cl)c3)ncnc2cc1OCCCN1CCOCC1 [CANERTINIB]; assay: as above; conditions: exposure time: 5 days; dose range 0.5-1000 nM
In short: as §1

MDV3100 [5] = compound: T4, CNC(=O)c1ccc(N2C(=S)N(c3ccc(C#N)c(C(F)(F)F)c3)C(=O)C2(C)C)cc1F [MDV3100]; assay: as above; conditions: exposure time: 5 days; dose range 0.5-1000 nM
In short: as §1

BI-2536 [6] = compound: T5, CC[C@@H]1C(=O)N(C)c2cnc(Nc3ccc(C(=O)NC4CCN(C)CC4)cc3OC)nc2N1C1CCCC1 [BI-2536]; assay: as above; conditions: exposure time: 5 days; dose range 0.5-1000 nM
In short: as §1

TIOGUANINE [7] = compound: T6, Nc1nc2[nH]cnc2c(=S)[nH]1 [TIOGUANINE]; assay: as above; conditions: exposure time: 5 days; dose range 0.5-1000 nM
In short: as §1

SNX-5422 [8] = compound: T7, CC1(C)CC(=O)c2c(C(F)(F)F)nn(-c3ccc(C(N)=O)c(N[C@H]4CC[C@H](OC(=O)CN)CC4)c3)c2C1 [SNX-5422]; assay: as above; conditions: exposure time: 5 days; dose range 0.5-1000 nM
In short: as §1

AFATINIB [9] = compound: T1, AFATINIB; assay: surviving fraction relative to DMSO-only wells; higher = less growth inhibition; conditions: exposure time: 5 days
In short: (§2)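 Viability was scored with CellTiter-Glo luminescence and normalised to the median of DMSO-only wells as surviving fraction. Beforehand, log-phase tumour cell lines were seeded at 250–500 cells per well in 384-well plates, allowed 24 hours, and exposed continuously for five days to inhibitors at 0.5, 1, 5, 10, 50, 100, 500 and 1000 nM. Only lines whose three screens gave replicate Pearson r >0.7 and median Z' >0.3 were kept.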

SAPACITABINE [10] = compound: T2, SAPACITABINE; assay: as above; conditions: exposure time: 5 days
In short: as §2

[11] = compound: Cn1cc(C2=Nc3cc(NC(=O)C(N)C4CCCCC4)cc4c3C2=CNNC4=O)cn1; assay: as above; conditions: exposure time: 5 days
In short: as §2

CANERTINIB [12] = compound: T3, CANERTINIB; assay: as above; conditions: exposure time: 5 days
In short: as §2

MDV3100 [13] = compound: T4, MDV3100; assay: as above; conditions: exposure time: 5 days
In short: as §2

BI-2536 [14] = compound: T5, BI-2536; assay: as above; conditions: exposure time: 5 days
In short: as §2

TIOGUANINE [15] = compound: T6, TIOGUANINE; assay: as above; conditions: exposure time: 5 days
In short: as §2

SNX-5422 [16] = compound: T7, SNX-5422; assay: as above; conditions: exposure time: 5 days
In short: as §2

Q: What does the source list for HCC78 LUNG?
A: area under dose-response curve (AFATINIB [1]): 2.33; area under dose-response curve (SAPACITABINE [2]): 1.52; area under dose-response curve [3]: 2.33; area under dose-response curve (CANERTINIB [4]): 2.55; area under dose-response curve (MDV3100 [5]): 2.9; area under dose-response curve (BI-2536 [6]): 0.803; area under dose-response curve (TIOGUANINE [7]): 2.59; area under dose-response curve (SNX-5422 [8]): 1.71; surviving fraction (AFATINIB [9]; 0.5 nM): 0.943 ± 0.12; surviving fraction (AFATINIB [9]; 1 nM): 0.936 ± 0.17; surviving fraction (AFATINIB [9]; 5 nM): 0.867 ± 0.21; surviving fraction (AFATINIB [9]; 10 nM): 0.787 ± 0.19; surviving fraction (AFATINIB [9]; 50 nM): 0.64 ± 0.16; surviving fraction (AFATINIB [9]; 100 nM): 0.682 ± 0.13; surviving fraction (AFATINIB [9]; 500 nM): 0.383 ± 0.13; surviving fraction (AFATINIB [9]; 1000 nM): 0.235 ± 0.027; surviving fraction (SAPACITABINE [10]; 0.5 nM): 0.831 ± 0.058; surviving fraction (SAPACITABINE [10]; 1 nM): 0.916 ± 0.25; surviving fraction (SAPACITABINE [10]; 5 nM): 0.913 ± 0.038; surviving fraction (SAPACITABINE [10]; 10 nM): 0.354 ± 0.035; surviving fraction (SAPACITABINE [10]; 50 nM): 0.445 ± 0.095; surviving fraction (SAPACITABINE [10]; 100 nM): 0.123 ± 0.052; surviving fraction (SAPACITABINE [10]; 500 nM): 0.039 ± 0.0087; surviving fraction (SAPACITABINE [10]; 1000 nM): 0.0357 ± 0.0059; surviving fraction ([11]; 0.5 nM): 0.91 ± 0.095; surviving fraction ([11]; 1 nM): 1.13 ± 0.26; surviving fraction ([11]; 5 nM): 0.993 ± 0.07; surviving fraction ([11]; 10 nM): 1.03 ± 0.17; surviving fraction ([11]; 50 nM): 0.887 ± 0.11; surviving fraction ([11]; 100 nM): 0.471 ± 0.29; surviving fraction ([11]; 500 nM): 0.0453 ± 0.011; surviving fraction ([11]; 1000 nM): 0.0623 ± 0.013; surviving fraction (CANERTINIB [12]; 0.5 nM): 0.848 ± 0.35; surviving fraction (CANERTINIB [12]; 1 nM): 0.812 ± 0.13; surviving fraction (CANERTINIB [12]; 5 nM): 0.946 ± 0.086; surviving fraction (CANERTINIB [12]; 10 nM): 0.983 ± 0.23; surviving fraction (CANERTINIB [12]; 50 nM): 0.638 ± 0.043; surviving fraction (CANERTINIB [12]; 100 nM): 0.775 ± 0.084; surviving fraction (CANERTINIB [12]; 500 nM): 0.532 ± 0.081; surviving fraction (CANERTINIB [12]; 1000 nM): 0.426 ± 0.18; surviving fraction (MDV3100 [13]; 0.5 nM): 0.976 ± 0.13; surviving fraction (MDV3100 [13]; 1 nM): 0.75 ± 0.27; surviving fraction (MDV3100 [13]; 5 nM): 1.03 ± 0.11; surviving fraction (MDV3100 [13]; 10 nM): 0.972 ± 0.14; surviving fraction (MDV3100 [13]; 50 nM): 0.799 ± 0.14; surviving fraction (MDV3100 [13]; 100 nM): 0.925 ± 0.092; surviving fraction (MDV3100 [13]; 500 nM): 0.664 ± 0.045; surviving fraction (MDV3100 [13]; 1000 nM): 0.451 ± 0.051; surviving fraction (BI-2536 [14]; 0.5 nM): 0.932 ± 0.33; surviving fraction (BI-2536 [14]; 1 nM): 0.781 ± 0.13; surviving fraction (BI-2536 [14]; 5 nM): 0.16 ± 0.03; surviving fraction (BI-2536 [14]; 10 nM): 0.091 ± 0.031; surviving fraction (BI-2536 [14]; 50 nM): 0.0883 ± 0.011; surviving fraction (BI-2536 [14]; 100 nM): 0.156 ± 0.023; surviving fraction (BI-2536 [14]; 500 nM): 0.112 ± 0.021; surviving fraction (BI-2536 [14]; 1000 nM): 0.0973 ± 0.01; surviving fraction (TIOGUANINE [15]; 0.5 nM): 0.726 ± 0.091; surviving fraction (TIOGUANINE [15]; 1 nM): 0.781 ± 0.21; surviving fraction (TIOGUANINE [15]; 5 nM): 0.854 ± 0.13; surviving fraction (TIOGUANINE [15]; 10 nM): 0.685 ± 0.23; surviving fraction (TIOGUANINE [15]; 50 nM): 0.866 ± 0.086; surviving fraction (TIOGUANINE [15]; 100 nM): 0.853 ± 0.059; surviving fraction (TIOGUANINE [15]; 500 nM): 0.743 ± 0.2; surviving fraction (TIOGUANINE [15]; 1000 nM): 0.773 ± 0.088; surviving fraction (SNX-5422 [16]; 0.5 nM): 0.808 ± 0.27; surviving fraction (SNX-5422 [16]; 1 nM): 1.2 ± 0.38; surviving fraction (SNX-5422 [16]; 5 nM): 1.03 ± 0.17; surviving fraction (SNX-5422 [16]; 10 nM): 1 ± 0.079; surviving fraction (SNX-5422 [16]; 50 nM): 0.0547 ± 0.01; surviving fraction (SNX-5422 [16]; 100 nM): 0.113 ± 0.049; surviving fraction (SNX-5422 [16]; 500 nM): 0.0627 ± 0.016; surviving fraction (SNX-5422 [16]; 1000 nM): 0.088 ± 0.007

Q: HS57T LUNG was tested. Which “area under dose-response curve” value (AFATINIB [1]) did it give?
A: 3.15

Q: What about the “area under dose-response curve” value (SAPACITABINE [2]) of the same test system?
A: 2.37

Q: What about the “area under dose-response curve” value [3] of the same test system?
A: 2.49

Q: What about the “area under dose-response curve” value (CANERTINIB [4]) of the same test system?
A: 2.92

Q: What about the “area under dose-response curve” value (MDV3100 [5]) of the same test system?
A: 3.03

Q: And the “area under dose-response curve” value (BI-2536 [6])?
A: 1.08

Q: What about the “area under dose-response curve” value (TIOGUANINE [7]) of the same test system?
A: 3.23

Q: And the “area under dose-response curve” value (SNX-5422 [8])?
A: 2.06
